According to patent publication US20120071475A1, “UREA DERIVATIVES HAVING PI3K-INHIBITING ACTIVITY” (SHIONOGI & CO., LTD., priority 2009, published 2012):
Where two headings read alike, the source gives them in different places.

Columns and labels:
[1] = target: PI3Kγ (Homo sapiens, UniProt P48736); assay: PI3Kγ inhibitory activity (PI3-kinase HTRF assay, inhibition ratio); assay type: biochemical; details: compound at 10 μmol/L; for inhibition at 10 µM: 0.5 h, read-out: PI3Kg Inhibition Ratio % (10 μM)
How it was run: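 Compound at 10 μmol/L preincubated 10 min with PI3Kγ and PIP2 substrate, then reacted with ATP for 30 minutes at room temperature; the compound, substrate and ATP figures as printed (40 μmol/L each) are solution concentrations. HTRF 665/620 nm ratio read after 18 hours. Inhibition ratio calculated against no-compound (100%) and no-enzyme (0%) controls.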

[2] = test system: AKT phosphorylation; assay: AKT phosphorylation inhibitory activity in MCP-1 stimulated THP-1 cells (sandwich ELISA); assay type: cell-based, Human; details: compound at 1 μmol/L, MCP-1 stimulation; for inhibition at 1 µM: Homo sapiens, read-out: AKT phosphorylation inhibition ratio
How it was run: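 THP-1 cells (6.7×10^6/mL in HBSS) were preincubated with compound at 1 μmol/L for 5 min at 37 °C, then stimulated for 60 s with HBSS containing 1.2 μg/mL MCP-1 and lysed. Phospho-Akt Ser473/AKT1 sandwich ELISA was read at A450. % inhibition: no compound = 100% activity, no MCP-1 = 0%.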

[3] = target: PI3Kβ (Homo sapiens, UniProt P42338); assay: PI3Kβ inhibitory activity (Ki value); assay type: biochemical
Method: (§1) According to Example 2 above, after 80 μg/mL PI-3 kinase γ of the enzyme solution (80 μg/mL PI-3 kinase γ, 10 mmol/L MgCl2, 5 mmol/L DTT) was changed to 60 μg/mL PI-3 kinase β, a method similar to the method for measuring PI3Kγ inhibitory activity was used to calculate an inhibition ratio, which was defined as the PI3Kβ inhibitory activity.
According to Example 4 above, a Km value for PI3Kβ was determined to calculate a Ki value.

[4] = target: PI3Kδ (Homo sapiens, UniProt O00329); assay: PI3Kδ inhibitory activity (Ki value); assay type: biochemical
Method: as §1, with “158” for “60”, “δ,” for “β,”, “PI3Kδ” for “PI3Kβ”
According to Example 4 above, a Km value for PI3Kδ was determined to calculate a Ki value.

[5] = Metabolic stability test (pooled human liver microsome); assay type: in vitro ADME; details: percentage of test compound remained after 30 minutes, pooled human liver microsome 0.5 mg protein/mL, 1 mmol/L NADPH, 37° C., compound 0.5 μM
How it was run: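 Pooled human liver microsomes (0.5 mg protein/mL) incubated with compound and 1 mmol/L NADPH at 37° C. in pH 7.4 Tris buffer for 0 or 30 min. Parent quantified by LC/MS/MS after methanol/acetonitrile quench; value is % remaining at 30 min versus 0 min.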

[6] = class symbols, read-out: PI3K β Ki
[7] = class symbols, read-out: PI3K δ Ki

Sequence of PI3Kδ (O00329 whole entry, species assumed): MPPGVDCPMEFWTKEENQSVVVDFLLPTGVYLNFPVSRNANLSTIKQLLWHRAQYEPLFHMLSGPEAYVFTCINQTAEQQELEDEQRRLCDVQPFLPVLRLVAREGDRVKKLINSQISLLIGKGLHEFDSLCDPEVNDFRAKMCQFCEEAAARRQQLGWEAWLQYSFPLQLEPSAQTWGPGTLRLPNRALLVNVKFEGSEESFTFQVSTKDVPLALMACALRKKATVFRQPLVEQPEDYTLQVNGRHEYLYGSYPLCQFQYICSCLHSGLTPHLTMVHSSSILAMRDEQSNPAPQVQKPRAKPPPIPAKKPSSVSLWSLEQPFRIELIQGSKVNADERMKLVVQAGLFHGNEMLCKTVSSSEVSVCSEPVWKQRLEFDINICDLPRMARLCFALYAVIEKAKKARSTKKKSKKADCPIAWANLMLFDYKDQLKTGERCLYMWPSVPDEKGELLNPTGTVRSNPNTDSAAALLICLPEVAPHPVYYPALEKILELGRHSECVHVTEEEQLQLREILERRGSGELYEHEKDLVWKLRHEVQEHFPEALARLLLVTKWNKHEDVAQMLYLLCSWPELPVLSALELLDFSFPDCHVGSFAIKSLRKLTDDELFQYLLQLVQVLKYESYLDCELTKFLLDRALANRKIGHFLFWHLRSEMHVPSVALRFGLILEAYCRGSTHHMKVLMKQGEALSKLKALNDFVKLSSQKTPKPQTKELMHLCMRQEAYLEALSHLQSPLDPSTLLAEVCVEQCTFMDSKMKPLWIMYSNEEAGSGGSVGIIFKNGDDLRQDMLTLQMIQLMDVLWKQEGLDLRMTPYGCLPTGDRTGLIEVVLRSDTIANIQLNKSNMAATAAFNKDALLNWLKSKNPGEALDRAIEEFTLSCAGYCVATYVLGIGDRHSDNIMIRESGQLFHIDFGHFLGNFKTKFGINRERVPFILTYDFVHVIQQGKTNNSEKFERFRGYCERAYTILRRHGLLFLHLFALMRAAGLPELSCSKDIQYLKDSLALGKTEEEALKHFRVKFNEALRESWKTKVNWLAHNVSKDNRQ
Sequence of PI3Kδ (P27986 whole entry partner, species assumed): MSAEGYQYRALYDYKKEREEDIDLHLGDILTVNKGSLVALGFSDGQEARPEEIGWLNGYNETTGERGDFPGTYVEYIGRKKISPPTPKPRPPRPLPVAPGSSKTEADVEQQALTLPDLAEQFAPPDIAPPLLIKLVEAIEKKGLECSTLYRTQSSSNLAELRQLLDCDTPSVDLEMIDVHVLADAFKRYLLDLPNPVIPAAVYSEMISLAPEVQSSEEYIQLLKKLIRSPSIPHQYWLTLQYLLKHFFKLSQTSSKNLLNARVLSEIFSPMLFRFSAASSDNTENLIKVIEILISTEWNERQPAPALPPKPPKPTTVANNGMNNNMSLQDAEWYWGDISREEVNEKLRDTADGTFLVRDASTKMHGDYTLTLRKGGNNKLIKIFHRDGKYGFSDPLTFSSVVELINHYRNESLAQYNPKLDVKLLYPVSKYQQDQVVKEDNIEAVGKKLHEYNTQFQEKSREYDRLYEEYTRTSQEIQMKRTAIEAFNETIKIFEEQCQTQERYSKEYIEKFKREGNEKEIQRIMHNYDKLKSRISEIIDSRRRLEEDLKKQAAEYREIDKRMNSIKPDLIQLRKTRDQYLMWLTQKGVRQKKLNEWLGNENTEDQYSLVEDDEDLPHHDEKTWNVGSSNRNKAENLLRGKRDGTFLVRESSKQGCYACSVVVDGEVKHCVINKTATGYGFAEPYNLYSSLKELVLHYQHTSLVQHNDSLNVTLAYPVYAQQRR
Sequence of PI3Kβ (P42338 whole entry, species assumed): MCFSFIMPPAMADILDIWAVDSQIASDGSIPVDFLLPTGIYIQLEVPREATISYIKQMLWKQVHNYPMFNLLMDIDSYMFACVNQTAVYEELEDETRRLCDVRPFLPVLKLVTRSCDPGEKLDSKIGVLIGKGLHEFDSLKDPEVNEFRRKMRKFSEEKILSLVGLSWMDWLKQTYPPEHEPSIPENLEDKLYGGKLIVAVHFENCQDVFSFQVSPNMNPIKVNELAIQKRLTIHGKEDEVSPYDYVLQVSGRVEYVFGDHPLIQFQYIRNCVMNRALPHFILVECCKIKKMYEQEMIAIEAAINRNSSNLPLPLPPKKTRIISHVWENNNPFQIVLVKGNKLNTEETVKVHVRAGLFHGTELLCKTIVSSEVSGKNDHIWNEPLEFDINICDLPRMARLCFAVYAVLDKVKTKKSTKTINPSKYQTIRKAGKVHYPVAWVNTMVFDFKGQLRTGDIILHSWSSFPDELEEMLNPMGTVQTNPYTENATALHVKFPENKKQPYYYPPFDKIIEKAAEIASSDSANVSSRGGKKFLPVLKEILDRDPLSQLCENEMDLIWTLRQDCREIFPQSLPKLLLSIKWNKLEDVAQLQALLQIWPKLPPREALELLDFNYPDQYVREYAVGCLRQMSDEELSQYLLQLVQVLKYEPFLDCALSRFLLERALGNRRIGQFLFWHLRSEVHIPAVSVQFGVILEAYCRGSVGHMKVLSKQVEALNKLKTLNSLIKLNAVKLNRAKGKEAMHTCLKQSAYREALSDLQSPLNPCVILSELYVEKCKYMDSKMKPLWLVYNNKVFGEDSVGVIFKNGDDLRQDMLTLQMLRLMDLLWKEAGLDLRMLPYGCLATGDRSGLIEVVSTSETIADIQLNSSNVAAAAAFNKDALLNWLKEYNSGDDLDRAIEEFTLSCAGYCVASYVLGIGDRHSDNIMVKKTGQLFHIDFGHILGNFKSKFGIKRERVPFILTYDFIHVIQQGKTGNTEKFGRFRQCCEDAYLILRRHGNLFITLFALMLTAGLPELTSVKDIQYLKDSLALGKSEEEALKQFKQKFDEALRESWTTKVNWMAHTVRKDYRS
Sequence of PI3Kβ (P27986 whole entry partner, species assumed): as the sequence (P27986 whole entry partner, species assumed) above
Sequence of PI3Kγ (P48736 whole entry, species assumed): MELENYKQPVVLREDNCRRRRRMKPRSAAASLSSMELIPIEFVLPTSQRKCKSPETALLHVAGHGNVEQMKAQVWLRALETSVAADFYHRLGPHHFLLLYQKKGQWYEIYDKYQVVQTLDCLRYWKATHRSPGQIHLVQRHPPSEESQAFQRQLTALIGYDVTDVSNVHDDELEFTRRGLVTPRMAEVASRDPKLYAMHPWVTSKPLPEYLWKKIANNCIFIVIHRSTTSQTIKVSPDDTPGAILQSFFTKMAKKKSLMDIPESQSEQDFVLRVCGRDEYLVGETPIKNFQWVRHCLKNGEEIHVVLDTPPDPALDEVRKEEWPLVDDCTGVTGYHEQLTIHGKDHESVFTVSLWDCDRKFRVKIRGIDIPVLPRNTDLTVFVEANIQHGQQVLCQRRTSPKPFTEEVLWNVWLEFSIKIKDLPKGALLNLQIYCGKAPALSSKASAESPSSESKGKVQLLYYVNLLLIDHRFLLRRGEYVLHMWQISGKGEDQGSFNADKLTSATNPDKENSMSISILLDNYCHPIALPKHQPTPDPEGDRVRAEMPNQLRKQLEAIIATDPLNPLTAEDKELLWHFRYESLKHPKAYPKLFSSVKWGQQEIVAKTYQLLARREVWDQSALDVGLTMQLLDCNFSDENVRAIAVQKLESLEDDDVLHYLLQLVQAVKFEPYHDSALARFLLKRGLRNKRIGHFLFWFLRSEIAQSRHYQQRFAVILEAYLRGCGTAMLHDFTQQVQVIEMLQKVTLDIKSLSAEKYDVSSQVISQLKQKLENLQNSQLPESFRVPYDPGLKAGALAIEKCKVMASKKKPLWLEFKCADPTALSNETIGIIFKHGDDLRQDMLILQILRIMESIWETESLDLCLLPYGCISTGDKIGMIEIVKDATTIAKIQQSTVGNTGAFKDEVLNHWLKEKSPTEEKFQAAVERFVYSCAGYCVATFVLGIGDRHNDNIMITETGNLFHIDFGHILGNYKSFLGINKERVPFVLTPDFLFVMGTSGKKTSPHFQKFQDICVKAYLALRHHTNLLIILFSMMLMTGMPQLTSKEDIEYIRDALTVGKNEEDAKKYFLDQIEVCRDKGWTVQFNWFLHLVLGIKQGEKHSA

| Compound | inhibition at 10 µM [1] | inhibition at 1 µM [2] | Ki [3, 6] | Ki ([3]; read-out: PI3Kβ Ki value) | Ki [4, 7] | Ki ([4]; read-out: PI3Kδ Ki value) | hLMS_ox(at 0.5 μM) % [5] | PI3Kg Inhibition Ratio % (10 μM) [1] | AKT phosphorylation inhibition ratio [2] |
| --- | --- | --- | --- | --- | --- | --- | --- | --- | --- |
| COc1cc(N2CCc3nc(NC(=O)Nc4ccccc4C(=O)NC(C)C)sc3C2)nc(OC)n1 [Compound I-12] | 94% | ≥ 95% | ≤ 3000 nM | 340 nM | ≤ 3000 nM | 590 nM |  |  |  |
| COc1cc(N2CCc3nc(NC(=O)Nc4ccccc4C(=O)NCCF)sc3C2)nc(OC)n1 [Compound I-88] | ≥ 95% | 87.3% |  |  |  |  | 88.2% |  |  |
| COc1nc(Cl)cc(N2CCc3nc(NC(=O)Nc4cnccc4C(=O)NC(C)C)sc3C2)n1 [Compound I-91] | ≥ 95% | 94.7% | ≤ 3000 nM |  | ≤ 3000 nM |  |  |  |  |
| COc1cncc(-c2ccc3nc(NC(=O)Nc4ccccc4OCCC(C)C)cn3n2)c1 [Compound I-114] |  | 64.9% | ≤ 3000 nM | 660 nM | ≤ 3000 nM | 2000 nM |  |  |  |
| Cc1nc(NC(=O)Nc2ccccc2C(=O)NC(C)C)sc1-c1ccc(S(C)(=O)=O)c(F)c1 [Compound I-127] | ≥ 95% | 77.7% | ≤ 3000 nM | 340 nM | ≤ 300 nM | 81 nM | 92.6% |  |  |
| CC(C)NC(=O)c1ccccc1NC(=O)Nc1nc2c(s1)CN(c1cncc(C(F)(F)F)c1)CC2 [Compound I-131] | 78% | 84% | > 3000 nM |  | > 3000 nM |  |  |  |  |
| COc1cc(N2CCc3nc(NC(=O)Nc4ccccc4C(=O)NC(C)C(O)C(F)(F)F)sc3C2)nc(OC)n1 (stereo not drawn) [Compound I-139] |  |  |  |  |  |  | 84.8% | ≧95% | ≥ 95% |
| COc1cc(N2CCc3nc(NC(=O)Nc4cn(C)nc4C(=O)NCC(F)(F)F)sc3C2)nc(OC)n1 [Compound I-148] | 90% | ≥ 95% | ≤ 300 nM |  | ≤ 300 nM |  | 87.9% |  |  |
| Cc1nc(NC(=O)Nc2ccccc2C(=O)NC(C)C)sc1-c1csc(S(=O)(=O)N(C)CCN(C)C)c1 [Compound I-191] | 87% | 93% |  |  |  |  |  |  |  |
| COc1cc(N2CCc3nc(NC(=O)Nc4ccccc4C(=O)NN4CCN(C)CC4)sc3C2)nc(OC)n1 [Compound I-195] | ≥ 95% | 82% |  |  |  |  | 110% |  |  |
| COc1nc(Cl)cc(N2CCc3nc(NC(=O)Nc4ccccc4C(=O)NC4CCCOC4)sc3C2)n1 (stereo not drawn) [Compound I-197] | ≥ 95% | 90% | > 3000 nM |  | > 3000 nM |  |  |  |  |
| CC(C)NC(=O)c1ccccc1NC(=O)Nc1nc2c(s1)CN(c1cccc(S(C)(=O)=O)c1)CC2 [Compound I-198] | ≥ 95% | 94% |  |  |  |  |  |  |  |
| COc1cc(N2CCc3nc(NC(=O)Nc4ccccc4C(=O)NC4CCOCC4)sc3C2)nc(OC)n1 [Compound I-203] | 91% | ≥ 95% |  |  |  |  | 88.5% |  |  |
| C[C@@H](CO)NC(=O)c1ccccc1NC(=O)Nc1nc2c(s1)CN(c1cncc(S(C)(=O)=O)c1)CC2 [Compound I-211] | 87% | 85% |  |  |  |  |  |  |  |
| COc1cncc(-c2cc(NC(=O)Nc3ccccc3C(=O)NC(C)C)nn2C)c1 [Compound I-226] | 93% |  | > 3000 nM |  | ≤ 3000 nM |  | 82.5% |  |  |
